Data on five compounds can be found in patent US12403111B2, “Compositions and methods for treating neurodevelopmental disorders” (SynGAP Research Fund, priority 2024, dated 2025).

Experiment [1] relates to raskol Drosophila eye phenotype. Briefly: Eye phenotype recovery assay (eye size) over several drug concentrations, SYNGAP1 (raskol) knockdown flies. It is filed as in vivo, Drosophila melanogaster. The conditions noted are these: for Effect on eye phenotype recovery (eye size): Example 38, multiple drug dilutions vs control. The source says:
Increased eye size over control (dark grey) indicates improved phenotype. […]
FIG. 42B depicts the eye size effect of NADL, L-Leucine and beta-hydroxyisovaleric acid on raskol Drosophila eye phenotype over multiple drug dilutions from Example 38.
A prioritized list of top hits was developed to further validate. Priority was place on actionable, safe, and biologically relevant drugs. To validate a top hit, the effect of each drug was tested over three doses. Three concentrations (1, 5, and 25 uM) were compared to a no drug control.

The next experiment concerns the target mTORC1 (Homo sapiens, UniProt P42345). The conditions noted are these: cited from earlier work.
The test system of another experiment is raskol Drosophila. Briefly: Induced seizures in raskol Drosophila. It is filed as in vivo, Drosophila melanogaster. The conditions noted are these: compared to untreated or NADL treated raskol Drosophila. The text has this:
In addition to the degenerate eye phenotype, raskol Drosophila are prone to induced seizures, as compared to wild type Drosophila.

A further experiment addresses LAT1 (Homo sapiens, UniProt Q01650). The settings on record: cited from earlier work.
The test system of experiment [2] is raskol Drosophila eye phenotype. Briefly: Drug screen (Prestwick Chemical Library) for rescue of degenerate eye in Drosophila model of SYNGAP1. It is filed as in vivo, Drosophila melanogaster. The conditions noted are these: screen of over 1520 drugs; Z scores >1 indicated improved phenotype. The text has this: The invention is also directed in part to a Drosophila melanogaster (fruit fly) model of SYNGAP1. The model is based on eye-specific RNAi knockdown of SYNGAP1, which is called raskol gene in flies. RNAi knockdown of the raskol gene in the eye of Drosophila results in a smaller, degenerate eye (FIG. 1). In one embodiment, the model is used to screen drug that rescue the degenerate eye phenotype in Drosophila melanogaster.
FIG. 7 is a graph of the Z-score of chemical effects on raskol Drosophila eye phenotype. Z scores >1 indicated improved phenotype; Z scores <1 indicated worsened phenotype. The arrow indicates the Z-score positioning of N-Acetyl-L-leucine (NALL).
Drosophila (fruit fly) model of SYNGAP1 was generated. This model is partial loss of function of SYNGAP1, similar to what is observed in humans.
To generate the model, fruit flies were engineered to eliminate SYNGAP1 gene expression in the eye. In flies, the gene is called raskol but herein referred to as SYNGAP1 for clarity. Eye-specific knockdown of SYNGAP1 using RNAi was used. RNAi knockdown of SYNGAP in the eye results in a smaller, disorganized and degenerate eye (FIG. 5).
The model allows for ascertaining therapeutic efficacy of a compound. The efficacy is evidenced by restoration of normal eye appearance upon treatment with the compound. […]

The test system of experiment [3] is tyrosine catabolic process. Briefly: RNAseq of untreated vs NALL-treated raskol Drosophila. It is filed as in vivo, Drosophila melanogaster. The settings on record: NALL-treated vs untreated raskol flies; TAT, HPD, FAA. On the procedure: Enzymes TAT, HPD, FAA highlight the differences in RNA expression in the presence of NALL treatment; molecules are all associated with the tyrosine catabolic process.
Finally, RNAseq was performed to compare gene regulation differences between raskol Drosophila untreated and NALL-treated flies.

The test system of experiment [4] is mice with experimental traumatic brain injury. The conditions noted are these: cited from earlier work.
The test system of experiment [5] is animals following unilateral labyrinthectomy. The settings on record: only minor effects on normal vestibular function; cited from earlier work.
Experiment [6] relates to patients with cerebellar ataxia. The conditions noted are these: 12 out of 20 individuals; cited from earlier work.

Structures are written as SMILES. “Also recorded” adds a separate entry of the source.

LAT1, sequence (Q01650 whole entry, species assumed): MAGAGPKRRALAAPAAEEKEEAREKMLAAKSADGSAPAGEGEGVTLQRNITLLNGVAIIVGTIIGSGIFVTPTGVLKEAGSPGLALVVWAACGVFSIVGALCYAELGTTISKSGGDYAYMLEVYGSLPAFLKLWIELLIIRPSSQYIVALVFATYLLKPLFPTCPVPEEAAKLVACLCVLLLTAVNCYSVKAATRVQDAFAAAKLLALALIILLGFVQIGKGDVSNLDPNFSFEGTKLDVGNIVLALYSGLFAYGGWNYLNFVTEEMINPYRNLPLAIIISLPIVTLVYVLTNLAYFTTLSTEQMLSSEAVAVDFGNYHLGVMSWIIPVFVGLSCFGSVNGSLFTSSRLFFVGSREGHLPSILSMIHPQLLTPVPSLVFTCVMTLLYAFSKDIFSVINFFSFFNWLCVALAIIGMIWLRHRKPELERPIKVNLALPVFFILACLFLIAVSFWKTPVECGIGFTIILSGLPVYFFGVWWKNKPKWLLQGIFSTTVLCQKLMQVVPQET
LAT1, sequence (P08195 102-630 partner, species assumed): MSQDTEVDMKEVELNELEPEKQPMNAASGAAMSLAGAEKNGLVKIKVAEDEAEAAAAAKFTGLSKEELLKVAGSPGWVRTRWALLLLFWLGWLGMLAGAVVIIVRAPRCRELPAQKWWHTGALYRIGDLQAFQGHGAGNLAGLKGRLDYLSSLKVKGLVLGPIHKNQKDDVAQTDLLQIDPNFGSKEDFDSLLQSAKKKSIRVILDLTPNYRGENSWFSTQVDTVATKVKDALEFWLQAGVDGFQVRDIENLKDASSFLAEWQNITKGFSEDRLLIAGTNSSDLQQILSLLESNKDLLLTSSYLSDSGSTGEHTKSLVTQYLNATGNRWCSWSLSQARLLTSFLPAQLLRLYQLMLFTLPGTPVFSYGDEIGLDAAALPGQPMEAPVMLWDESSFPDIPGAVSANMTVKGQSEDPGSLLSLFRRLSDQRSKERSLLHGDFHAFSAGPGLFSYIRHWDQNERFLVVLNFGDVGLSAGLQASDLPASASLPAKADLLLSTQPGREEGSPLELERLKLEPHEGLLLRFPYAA

As to `CC(C)(O)CC(=O)O` [beta-hydroxyisovaleric acid, Beta-hydroxyisovaleric acid], the “Effect on eye phenotype recovery (eye size)” value (“Effect … (eye size)” for short) in [1] is given as “do not have a significant effect”.

In the case of `CC(C)C[C@H](N)C(=O)O` [L-Leucine], the “Effect on mTORC1” value at mTORC1 is recorded as “activates”. In addition, the “Effect … (eye size)” value in experiment [1] is “do not have a significant effect; also recorded: neither NADL nor L-Leucine have a significant effect”.

For the compound `CC(=O)N[C@@H](CC(C)C)C(=O)O` [NALL, N-acetyl-L-leucine], the “Effect on mTORC1” value at mTORC1 is recorded as “inhibit or negatively regulate”. For the same compound, in the experiment on raskol Drosophila, the “Recovery time after induced seizures” value is “faster recovery time”. Also, on LAT1, the “Binding or blocking of LAT1” value is listed as “neither binds nor blocks”. The “Z-score of chemical effects on raskol Drosophila eye phenotype” value in experiment [2] is 1.35. In experiment [1], the “Effect … (eye size)” value is “significant effect on phenotype recovery, as was observed with NALL”. Besides, the “Eye phenotype in validation of top hit” value in experiment [1] (three concentrations (1, 5, and 25 uM) vs no drug control) is reported as “larger, more organized, less degenerate eye”. Moreover, the “Gene regulation differences by RNAseq” value in experiment [3] was “Down regulated genes were enriched for tyrosine catabolic processes”. In addition, in experiment [4] (reduced accumulation of autophagosome markers vs controls), the “Autophagy in cortical tissue” value is recorded as “increase in autophagy”. Further, the “Motor and cognitive outcomes” value in [4] (treated mice vs controls) was “significant improvement in motor and cognitive outcomes”.

With `CC(=O)N[C@@H](CC(C)C)C(=O)O` [acetyl-leucine], the Vestibular compensation entry in [5] is recorded as “accelerate vestibular compensation”. Further, the “Individuals with significant improvements in ataxia” value in experiment [6] is 60%.

With `CC(=O)N[C@H](CC(C)C)C(=O)O` [NADL, N-acetyl-D-leucine], the “Effect … (eye size)” value in [1] is “do not have a significant effect; also recorded: neither NADL nor L-Leucine have a significant effect”.
